Assay results published in patent US4410516A, “1-N(αHydroxy-ω-aminoalkanoyl) derivatives of 5,3',4'-trideoxy- or 5,3', 4'-trideoxy-6'-N- methyl- or 5, 3', 4',6"-tetradeoxykannamyci B and production thereof” (Zaidan Hojin Biseibutsu Kagaku Kenkyu Kai, priority 1981, dated 1983).
In brackets after ≈: the same amount, converted by molar mass. Where two headings read alike, the source gives them in different places.

Columns and labels:
[1] = system: Klebsiella pneumoniae 22 #3038; experiment: Minimum inhibitory concentration, serial dilution on nutrient agar; format: cell-based
Providencia Pv 16 = experiment: as above; format: cell-based; conditions: PV16, 37° C., 18 hours incubation
[2] = Acute toxicity by intravenous injection in mice; conditions: mouse, in vivo
[3] = system: Mycobacterium smegmatis ATCC 607; experiment: Minimum inhibitory concentration, serial dilution on nutrient agar; format: cell-based; conditions: Mycolicibacterium smegmatis, ATCC607; nutrient agar, 37° C., 18 hours incubation; read-out: MIC
[4] = system: Escherichia coli K-12 ML 1629; experiment: as above; format: cell-based
[5] = system: Pseudomonas aeruginosa No. 12; experiment: as above; format: cell-based
Serratia 4 = experiment: as above; format: cell-based; conditions: 37° C., 18 hours incubation
Escherichia coli W677 = experiment: as above; format: cell-based
[6] = system: Pseudomonas aeruginosa H11; experiment: as above; format: cell-based
[7] = system: Bacillus cereus ATCC 10702; experiment: as above; format: cell-based
Proteus rettgeri GN466 = experiment: as above; format: cell-based; conditions: Providencia rettgeri
Escherichia coli JR255 = experiment: as above; format: cell-based
[8] = system: Klebsiella pneumoniae PCI 602; experiment: as above; format: cell-based
[9] = system: Pseudomonas aeruginosa H9; experiment: as above; format: cell-based
[10] = system: Micrococcus flavus FDA 16; experiment: as above; format: cell-based; conditions: FDA16, 18 h
[11] = system: Bacillus subtilis PCI 219; experiment: as above; format: cell-based; conditions: PCI219, 37° C., 18 hours incubation
Salmonella typhi T-63 = experiment: as above; format: cell-based; conditions: Salmonella enterica, 18 h
[12] = system: Escherichia coli K-12 C 600R/35; experiment: as above; format: cell-based; conditions: K12C600R/35, 37° C., 18 hours incubation
Description: (§1) The minimum inhibitory concentration (mcg/ml) of 1-N-[(S)-4-amino-2-hydroxybutyryl]-5,3',4'-trideoxykanamycin B (abbreviated as AHB-trideoxyKMB), 1-N-[(RS)-3-amino-2-hydroxypropionyl]-5,3',4'-trideoxykanamycin B (abbreviated as AHP-trideoxy-KMB) and 1-N-[(S)-4-amino-2-hydroxybutyryl]-5,3',4',6"-tetradeoxykanamycin B (abbreviated as AHB-tetradeoxyKMB) of the formula (II) according to this invention as well as of the new compound 5,3',4',6"-tetradeoxykanamycin B (abbreviated as tetradeoxyKMB) of the formula (III) according to this invention against various microorganisms were determined according to serial dilution method on a nutrient agar medium at 37° C., the estimation being made after 18 hours incubation. For comparison purpose, the minimum inhibitory concentrations of habekacin were also determined in the same manner as stated above.
(§2) The minimum inhibitory concentrations (mcg/ml) of 1-N-[(S)-4-amino-2-hydroxybutyryl]-5,3',4'-trideoxy-6'-N-methylkanamycin B (abbreviated as AHB-trideoxyMKMB), 1-N-[(RS)-3-amino-2-hydroxypropionyl]-5,3',4'-trideoxy-6'-N-methylkanamycin B (abbreviated as AHP-trideoxyMKMB) and 1-N-[(S)-5-amino-2-hydroxyvaleryl]-5,3',4'-trideoxy-6'-N-methylkanamycin B (abbreviated as AHV-trideoxyMKMB) of the formula (IV) according to this invention as well as of the new compound 5,3',4'-trideoxy-6'-N-methylkanamycin B (abbreviated as trideoxyMKMB) of the formula (V) according to this invention against various microorganisms were determined according to serial dilution method on a nutrient agar medium at 37° C., the estimation being made after 18 hours incubation. For comparison purpose, the minimum inhibitory concentrations of 1-N-[(S)-4-amino-2-hydroxybutyryl]-3',4'-dideoxykanamycin B (ie. habekacin) were also determined in the same manner as stated above.

[13] = system: Escherichia coli K-12 ML 1630; experiment: as above; format: cell-based; conditions: K12ML1630, 37° C., 18 hours incubation
Description: as §1, §2

[14] = system: Escherichia coli K-12 J5R 11-2; experiment: as above; format: cell-based; conditions: K12J5R112, 37° C., 18 hours incubation
Description: as §1, §2

[15] = system: Shigella flexneri 4b JS11811; experiment: as above; format: cell-based; conditions: 4BJS11811, 37° C., 18 hours incubation
Description: as §1, §2

Shigella sonnei JS11746 = experiment: as above; format: cell-based; conditions: 37° C., 18 hours incubation
Description: as §1, §2

Sarcina lutea PCI 1001 = experiment: as above; format: cell-based; conditions: Micrococcus luteus
[16] = system: Shigella dysenteriae JS 11910; experiment: as above; format: cell-based; conditions: JS11910, 18 h
[17] = system: Pseudomonas aeruginosa K-Ps102; experiment: as above; format: cell-based
[18] = system: Staphylococcus epidermidis 109; experiment: as above; format: cell-based; conditions: Staphylococcus epidermidis, 109; nutrient agar, 37° C., 18 hours incubation; read-out: MIC
[19] = system: Staphylococcus aureus Smith; experiment: as above; format: cell-based; conditions: 37° C., 18 hours incubation
[20] = system: Salmonella enteritidis 1891; experiment: as above; format: cell-based; conditions: Salmonella enterica
Bacillus anthracis = experiment: microbe, parasite or virus in culture; format: cell-based; conditions: 18 h
[21] = system: Escherichia coli K-12 LA 290 R64; experiment: Minimum inhibitory concentration, serial dilution on nutrient agar; format: cell-based; conditions: K12LA290R64, 18 h
[22] = K12ML1629, nutrient agar, 37° C., 18 hours incubation, read-out: MIC
[23] = NO.12, nutrient agar, 37° C., 18 hours incubation, read-out: MIC
[24] = W677, nutrient agar, 37° C., 18 hours incubation, read-out: MIC
[25] = ATCC10702, nutrient agar, 37° C., 18 hours incubation, read-out: MIC
[26] = GN466, nutrient agar, 37° C., 18 hours incubation, read-out: MIC
[27] = JR255, nutrient agar, 37° C., 18 hours incubation, read-out: MIC
[28] = PCI1001, nutrient agar, 37° C., 18 hours incubation, read-out: MIC
[29] = KPS102, nutrient agar, 37° C., 18 hours incubation, read-out: MIC
[30] = nutrient agar, 37° C., 18 hours incubation, read-out: MIC

SMILES	MIC ([1]; 18 h) [µg/mL]	MIC (Providencia Pv 16) [µg/mL]	LD50 [2] [mg/kg]	MIC [3] [µg/mL]	MIC [4, 22] [µg/mL]	MIC [5, 23] [µg/mL]	MIC (Serratia 4) [µg/mL]	MIC [10] [µg/mL]	MIC [11] [µg/mL]	MIC (Salmonella typhi T-63) [µg/mL]	MIC [12] [µg/mL]	MIC [13] [µg/mL]	MIC [14] [µg/mL]	MIC [15] [µg/mL]	MIC (Shigella sonnei JS11746) [µg/mL]	MIC [16] [µg/mL]	MIC [18] [µg/mL]	MIC [19] [µg/mL]	MIC (Bacillus anthracis) [µg/mL]	MIC [21] [µg/mL]	also measured
NCC(O)C(=O)N[C@@H]1C[C@H](N)[C@@H](O[C@H]2O[C@H](CN)CC[C@H]2N)C[C@H]1O[C@H]1O[C@H](CO)[C@@H](O)[C@H](N)[C@H]1O (stereo partly drawn) [AHP-trideoxyKMB, 1-N-[(RS)-3-amino-2-hydroxypropionyl]-5,3',4'-trideoxykanamycin B]	6.25 (≈ 12 µM)	25 (≈ 47.8 µM)	25 to 50	0.2 (≈ 0.383 µM)	3.13 (≈ 5.99 µM)	3.13 (≈ 5.99 µM)	25 (≈ 47.8 µM)	6.25 (≈ 12 µM)	< 0.2	50 (≈ 95.7 µM)	1.56 (≈ 2.99 µM)	3.13 (≈ 5.99 µM)	1.56 (≈ 2.99 µM)	6.25 (≈ 12 µM)	6.25 (≈ 12 µM)	6.25 (≈ 12 µM)	0.78 (≈ 1.49 µM)	< 0.2	< 0.2	1.56 (≈ 2.99 µM)	MIC (Escherichia coli W677; [24]): 1.56 µg/mL (≈ 2.99 µM); MIC ([6]; H11, 18 h): 6.25 µg/mL (≈ 12 µM); MIC [7, 25]: 0.78 µg/mL (≈ 1.49 µM); MIC (Proteus rettgeri GN466; [26]): 3.13 µg/mL (≈ 5.99 µM); MIC (Escherichia coli JR255; [27]): 1.56 µg/mL (≈ 2.99 µM); MIC ([8]; PCI602, nutrient agar, 37° C., 18 hours incubation, read-out: MIC): 1.56 µg/mL (≈ 2.99 µM); MIC ([9]; H9, nutrient agar, 37° C., 18 hours incubation, read-out: MIC): 3.13 µg/mL (≈ 5.99 µM); MIC (Sarcina lutea PCI 1001; [28]): 0.78 µg/mL (≈ 1.49 µM); MIC [17, 29]: 3.13 µg/mL (≈ 5.99 µM); MIC ([20]; 18 h): 6.25 µg/mL (≈ 12 µM)
CNC[C@@H]1CC[C@@H](N)[C@@H](O[C@H]2C[C@@H](O[C@H]3O[C@H](CO)[C@@H](O)[C@H](N)[C@H]3O)[C@H](NC(=O)C(O)CN)C[C@@H]2N)O1 (stereo partly drawn) [AHP-trideoxyMKMB, 1-N-[(RS)-3-amino-2-hydroxypropionyl]-5,3',4'-trideoxy-6'-N-methylkanamycin B]	3.13 (≈ 5.83 µM)	50 (≈ 93.2 µM)	50 to 100	0.39 (≈ 0.727 µM)			12.5 (≈ 23.3 µM)	3.13 (≈ 5.83 µM)	0.39 (≈ 0.727 µM)	3.13 (≈ 5.83 µM)	1.56 (≈ 2.91 µM)	3.13 (≈ 5.83 µM)	3.13 (≈ 5.83 µM)	3.13 (≈ 5.83 µM)	6.25 (≈ 11.6 µM)	6.25 (≈ 11.6 µM)	< 0.2	< 0.2	< 0.2	3.13 (≈ 5.83 µM)	MIC ([4]; K12ML1629, 18 h): 3.13 µg/mL (≈ 5.83 µM); MIC ([5]; NO.12, 18 h): 3.13 µg/mL (≈ 5.83 µM); MIC (Escherichia coli W677; W677, 18 h): 3.13 µg/mL (≈ 5.83 µM); MIC ([6]; H11, nutrient agar, 37° C., 18 hours incubation, read-out: MIC): 12.5 µg/mL (≈ 23.3 µM); MIC [7, 25]: 1.56 µg/mL (≈ 2.91 µM); MIC (Proteus rettgeri GN466; [26]): 12.5 µg/mL (≈ 23.3 µM); MIC (Escherichia coli JR255; JR255, 18 h): 3.13 µg/mL (≈ 5.83 µM); MIC ([8]; PCI602, 18 h): 3.13 µg/mL (≈ 5.83 µM); MIC ([9]; H9, 18 h): 3.13 µg/mL (≈ 5.83 µM); MIC (Sarcina lutea PCI 1001; [28]): 0.78 µg/mL (≈ 1.45 µM); MIC ([17]; KPS102, 18 h): 3.13 µg/mL (≈ 5.83 µM); MIC ([20]; 18 h): 6.25 µg/mL (≈ 11.6 µM)
NCC[C@H](O)C(=O)N[C@@H]1C[C@H](N)[C@@H](O[C@H]2O[C@H](CN)CC[C@H]2N)[C@H](O)[C@H]1O[C@H]1O[C@H](CO)[C@@H](O)[C@H](N)[C@H]1O [Habekacin, 1-N-[(S)-4-amino-2-hydroxybutyryl]-3',4'-dideoxykanamycin B, reference compound]		25 (≈ 45.2 µM)		0.39 (≈ 0.706 µM)	3.13 (≈ 5.66 µM)	3.13 (≈ 5.66 µM)	50 (≈ 90.5 µM)	1.56 (≈ 2.82 µM)	< 0.2	1.56 (≈ 2.82 µM)	1.56 (≈ 2.82 µM)	3.13 (≈ 5.66 µM)	1.56 (≈ 2.82 µM)	6.25 (≈ 11.3 µM)	6.25 (≈ 11.3 µM)	12.5 (≈ 22.6 µM)	0.78 (≈ 1.41 µM)	< 0.2	< 0.2	3.13 (≈ 5.66 µM)	MIC [1, 30]: 3.13 µg/mL (≈ 5.66 µM); MIC (Escherichia coli W677; [24]): 3.13 µg/mL (≈ 5.66 µM); MIC ([6]; H11, 18 h): 12.5 µg/mL (≈ 22.6 µM); MIC ([7]; ATCC10702, 18 h): 1.56 µg/mL (≈ 2.82 µM); MIC (Proteus rettgeri GN466; GN466, 18 h): 12.5 µg/mL (≈ 22.6 µM); MIC (Escherichia coli JR255; [27]): 3.13 µg/mL (≈ 5.66 µM); MIC ([8]; PCI602, 18 h): 1.56 µg/mL (≈ 2.82 µM); MIC ([9]; H9, 18 h): 6.25 µg/mL (≈ 11.3 µM); MIC (Sarcina lutea PCI 1001; PCI1001, 18 h): 1.56 µg/mL (≈ 2.82 µM); MIC [17, 29]: 3.13 µg/mL (≈ 5.66 µM); MIC [20, 30]: 3.13 µg/mL (≈ 5.66 µM)
